Results taken from patent publication US11285156B2, “Substituted piperazines as KRAS G12C inhibitors” (Amgen Inc., priority 2018, dated 2022).
Where two headings read alike, the source gives them in different places.

What was measured:
[1] = molecular target: GDP-bound KRAS protein (aa 1-169), containing both G12C and C118A amino acid substitutions (Homo sapiens (Human), UniProt P01116, C118A/G12C); test: Coupled nucleotide exchange assay (SOS-mediated nucleotide exchange, AlphaScreen); format: biochemical; conditions: 5 min compound pre-incubation; for IC50: read-out: Coupled exchange IC50 (5 min; μM)
Chain of GDP-bound KRAS protein (aa 1-169), containing both G12C and C118A amino acid substitutions (P01116 other isoform, or with tags, fused parts or gaps G12C/C118A): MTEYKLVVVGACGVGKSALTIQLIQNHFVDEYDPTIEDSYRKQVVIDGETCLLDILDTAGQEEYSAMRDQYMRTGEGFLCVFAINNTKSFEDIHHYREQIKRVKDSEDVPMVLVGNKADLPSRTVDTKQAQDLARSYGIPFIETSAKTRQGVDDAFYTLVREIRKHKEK

[2] = system: Phosphorylation of ERK1/2 in MIA PaCa-2 cells; test: Phospho-ERK1/2 MSD assay in MIA PaCa-2 cells; format: cell-based; conditions: read-out: p-ERK IC50 (2 h, MiaPaCa-2; μM), 2 h compound treatment, MIA PaCa-2 cells, EGF stimulated
Procedure, shortened: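 Phospho-ERK1/2 measured by MSD electrochemiluminescence kit in RIPA lysates of MIA PaCa-2 cells. Cells were treated with compound titrations for 2 or 4 h at 37 °C, 5% CO2, followed by a 10 min pulse of 10 ng/mL EGF.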

[3] = system: Phosphorylation of ERK1/2 in A549 cells; test: Phospho-ERK1/2 MSD assay in A549 cells; format: cell-based; conditions: read-out: p-ERK IC50 (2 h, A549; μM), 2 h compound treatment, A549 cells, EGF stimulated
Procedure, shortened: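 MSD electrochemiluminescent read-out of phospho-ERK1/2 in RIPA lysates. Cells in RPMI 1640 with 10% FBS received titrated compound for 2 or 4 h, then 10 ng/mL EGF for 10 min before ice-cold PBS wash and lysis.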

Row | Coupled exchange IC50 (5 min; μM) [1] | SMILES | IC50 [1] | IC50 [2] | IC50 [3] | IC50 ([3]; Homo sapiens, A549, 2 h) | IC50 ([2]; Homo sapiens, MIA PaCa-2, 2 h)
1 | – | C#Cc1ccc(F)c(-c2nc3c(cc2Cl)c(N2C[C@@H](C)N(C(=O)C=C)C[C@@H]2C)nc(=O)n3-c2c(C)ccnc2C(C)C)c1 (atropisomer, axis not shown; (M)) [Example 226, (M)-6-Chloro-4-[(2S,5R)-2,5-dimethyl-4-prop-2-enoyl-piperazin-1-yl]-7-(5-ethynyl-2-fluoro-phenyl)-1-(2-isopropyl-4-methyl-3-pyridyl)pyrido[2,3-d]pyrimidin-2-one] | 0.04 µM | 0.063 µM | > 7.5 µM | – | –
2 | – | C=CC(=O)N1C[C@H](C)N(c2nc(=O)n3c4nc(c(Cl)cc24)-c2ccccc2C/C=C\Cc2ccccc2-3)C[C@H]1C (atropisomer, axis not shown; (P)) [Example 146-3] | 7.03 µM | 4.26 µM | – | > 7.5 µM | –
3 | 0.054 µM | C=CC(=O)N1C[C@H](C)N(c2nc(=O)n(-c3c(C)ccnc3C(C)C)c3nc(-c4ccccc4C(C)O)c(Cl)cc23)C[C@H]1C (mixture of isomers) [Example 92-43, (M)-6-Chloro-4-[(2S,5R)-2,5-dimethyl-4-prop-2-enoyl-piperazin-1-yl]-7-[2-[(1RS)-1-hydroxyethyl]phenyl]-1-(2-isopropyl-4-methyl-3-pyridyl)pyrido [2,3-d]pyrimidin-2-one] | – | – | – | > 7.5 µM | 0.076 µM
4 | – | C=CC(=O)N1C[C@H](C)N(c2nc(=O)n(-c3c(N(C)C)ccnc3C(C)C)c3nc(-c4ccccc4F)c(Cl)cc23)C[C@H]1C (single isomer, unassigned) [Example 55-51-1] | 0.298 µM | 0.157 µM | > 7.5 µM | – | –
5 | – | C=CC(=O)N1C[C@H](C)N(c2nc(=O)n(-c3c(N(C)C)ccnc3C(C)C)c3nc(-c4ccccc4F)c(Cl)cc23)C[C@H]1C (single isomer, unassigned) [Example 55-51-2] | 0.07 µM | 0.037 µM | > 7.5 µM | – | –
6 | – | C=CC(=O)N1C[C@H](C)N(c2nc(=O)n(-c3c(CC)ccnc3C(C)C)c3nc(-c4ccccc4F)c(Cl)cc23)C[C@H]1C (single isomer, unassigned) [Example 55-58-1] | 0.03 µM | 0.107 µM | > 7.5 µM | – | –
7 | – | C=CC(=O)N1C[C@H](C)N(c2nc(=O)n(-c3c(CC)ccnc3C(C)C)c3nc(-c4ccccc4F)c(Cl)cc23)C[C@H]1C (single isomer, unassigned) [Example 55-58-2] | 0.092 µM | 0.101 µM | > 7.5 µM | – | –
8 | – | C=CC(=O)N1C[C@H](C)N(c2nc(=O)n(-c3c(CN4CCCC4)cccc3C(C)C)c3nc(-c4ccccc4F)c(Cl)cc23)C[C@H]1C (single isomer, unassigned) [Example 80-10-2] | 0.053 µM | 0.04 µM | > 7.5 µM | – | –
9 | – | C=CC(=O)N1C[C@H](C)N(c2nc(=O)n(-c3c(CN(C)C)cccc3C(C)C)c3nc(-c4ccccc4F)c(Cl)cc23)C[C@H]1C (single isomer, unassigned) [Example 80-14-2] | 0.061 µM | – | – | > 7.5 µM | 0.031 µM
10 | – | C=CC(=O)N1C[C@H](C)N(c2nc(=O)n(-c3c(CN(C)C)ccnc3C(C)C)c3nc(-c4ccccc4F)c(Cl)cc23)C[C@H]1C (single isomer, unassigned) [Example 80-16-1] | 0.061 µM | – | – | > 7.5 µM | 0.041 µM
11 | – | C=CC(=O)N1C[C@H](C)N(c2nc(=O)n(-c3c(CN(C)C)ncnc3C(C)C)c3nc(-c4ccccc4F)c(Cl)cc23)C[C@H]1C (single isomer, unassigned) [Example 80-18-2] | 0.11 µM | – | – | > 7.5 µM | 0.044 µM
12 | – | C=CC(=O)N1C[C@H](C)N(c2nc(=O)n(-c3c(C)cc(CN(C)C)cc3C(C)C)c3nc(-c4ccccc4F)c(F)cc23)C[C@H]1C (single isomer, unassigned) [Example 80-20-2] | 0.368 µM | 0.295 µM | > 7.5 µM | – | –
13 | – | C=CC(=O)N1C[C@H](C)N(c2nc(=O)n(-c3c(C)cc(CN(C)C)cc3C(C)C)c3nc(-c4c(O)cccc4F)c(F)cc23)C[C@H]1C (single isomer, unassigned) [Example 80-21-2] | 0.061 µM | 0.072 µM | > 7.5 µM | – | –
14 | – | C=CC(=O)N1C[C@H](C)N(c2nc(=O)n(-c3c(C(C)C)cnn3C(C)C)c3nc(-c4ccccc4F)c(Cl)cc23)C[C@H]1C (single isomer, unassigned) [Example 100-1-1] | 0.061 µM | 0.091 µM | > 7.5 µM | – | –
15 | – | C=CC(=O)N1C[C@H](C)N(c2nc(=O)n(-c3c(C(C)C)cnn3C(C)C)c3nc(-c4ccccc4F)c(Cl)cc23)C[C@H]1C (single isomer, unassigned) [Example 100-1-2] | 0.062 µM | 0.098 µM | > 7.5 µM | – | –
16 | – | C=CC(=O)N1C[C@H](C)N(c2nc(=O)n(-c3c(Cl)ncnc3C(C)C)c3nc(-c4ccccc4F)c(Cl)cc23)C[C@H]1C (single isomer, unassigned) [Example 102-5-1] | 0.031 µM | 0.058 µM | > 7.5 µM | – | –
17 | – | C=CC(=O)N1C[C@H](C)N(c2nc(=O)n(-c3c(Cl)ncnc3C(C)C)c3nc(-c4ccccc4F)c(Cl)cc23)C[C@H]1C (single isomer, unassigned) [Example 102-5-2] | 0.173 µM | 0.873 µM | > 7.5 µM | – | –
18 | – | C=CC(=O)N1C[C@H](C)N(c2nc(=O)n(-c3c(Cl)ncnc3C(C)C)c3nc(-c4ccccc4C)c(Cl)cc23)C[C@H]1C (single isomer, unassigned) [Example 102-6-1] | 0.094 µM | 0.056 µM | > 7.5 µM | – | –
19 | – | C=CC(=O)N1C[C@H](C)N(c2nc(=O)n(-c3c(C)cc(P(C)(C)=O)cc3C(C)C)c3nc(-c4ccccc4F)c(Cl)cc23)C[C@H]1C (single isomer, unassigned) [Example 102-7-1] | 0.181 µM | – | – | > 7.5 µM | 1.06 µM
20 | – | C=CC(=O)N1C[C@H](C)N(c2nc(=O)n(-c3c(N(C)C)ccnc3C(C)C)c3nc(-c4ccccc4C(C)C)c(Cl)cc23)C[C@H]1C (single isomer, unassigned) [Example 103-1-2] | 0.053 µM | 0.039 µM | > 7.5 µM | – | –
21 | – | C=CC(=O)N1C[C@H](C)N(c2nc(=O)n(-c3c(N(CC)CC)ccnc3C(C)C)c3nc(-c4ccccc4C(C)C)c(Cl)cc23)C[C@H]1C (single isomer, unassigned) [Example 103-6-2] | 0.112 µM | 0.26 µM | 5.19 µM | – | –
22 | – | C=CC(=O)N1C[C@H](C)N(c2nc(=O)n(-c3c(N(C)C)ccnc3C(C)C)c3nc(-c4ccccc4C)c(Cl)cc23)C[C@H]1C (single isomer, unassigned) [Example 103-7-2] | 0.088 µM | 0.052 µM | > 7.5 µM | – | –
23 | – | C=CC(=O)N1C[C@H](C)N(c2nc(=O)n(-c3c(C)ccnc3C(C)C)c3nc(-c4ccccc4F)c(Cl)nc23)C[C@H]1C (single isomer, unassigned) [Example 106-6-2] | 0.059 µM | – | – | > 7.5 µM | 0.301 µM
24 | – | C=CC(=O)N1C[C@H](C)N(c2nc(=O)n(-c3c(C(C)C)ncnc3C3CC3)c3nc(-c4ccccc4F)c(Cl)cc23)C[C@H]1C (single isomer, unassigned) [Example 108-1-1] | 0.006 µM | 0.021 µM | > 7.5 µM | – | –
25 | – | C=CC(=O)N1C[C@H](C)N(c2nc(=O)n(-c3c(C(C)C)ncnc3C3CC3)c3nc(-c4ccccc4F)c(Cl)cc23)C[C@H]1C (single isomer, unassigned) [Example 108-1-2] | 0.008 µM | 0.054 µM | > 7.5 µM | – | –
